Data reported in ChEMBL document CHEMBL1201862, “PubChem BioAssay data set” (2004).
The source made the active and inactive calls.

Legend:
Large T antigen = Large T antigen (Simian virus 40, UniProt P03070); type: functional, Betapolyomavirus macacae;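 also: Confirmatory-stage PubChem screen for compounds that inhibit SV40 T antigen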
Coagulation factor XII = molecular target: T1, Coagulation factor XII (Homo sapiens, UniProt P00748); type: functional;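 also: activated factor XIIa alpha cleaving a fluorogenic AMC peptide substrate; inhibitor potency from loss of enzyme activity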
T1 sequence (P00748 whole entry): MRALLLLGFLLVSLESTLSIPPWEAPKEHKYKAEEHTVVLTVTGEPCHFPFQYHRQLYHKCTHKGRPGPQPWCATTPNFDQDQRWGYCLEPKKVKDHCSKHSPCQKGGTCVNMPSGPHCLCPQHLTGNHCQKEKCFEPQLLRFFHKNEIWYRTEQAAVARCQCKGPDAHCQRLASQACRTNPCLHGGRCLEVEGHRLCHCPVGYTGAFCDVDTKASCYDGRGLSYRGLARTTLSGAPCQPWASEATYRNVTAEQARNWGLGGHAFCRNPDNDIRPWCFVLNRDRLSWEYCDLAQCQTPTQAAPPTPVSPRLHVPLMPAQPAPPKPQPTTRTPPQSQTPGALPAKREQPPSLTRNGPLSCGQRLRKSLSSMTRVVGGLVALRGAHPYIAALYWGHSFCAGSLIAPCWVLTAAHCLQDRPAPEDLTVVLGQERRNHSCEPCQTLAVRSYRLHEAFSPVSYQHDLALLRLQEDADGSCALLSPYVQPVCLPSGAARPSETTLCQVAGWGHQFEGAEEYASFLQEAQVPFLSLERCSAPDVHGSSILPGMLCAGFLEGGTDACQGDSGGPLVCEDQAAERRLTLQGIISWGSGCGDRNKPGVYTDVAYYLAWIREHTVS

Fatty acid synthase [1] = molecular target: T2, Fatty acid synthase (Homo sapiens, UniProt P49327); experiment: inhibition of human FAS-TE enzyme activity – biochemical, kinetic fluorescence intensity, dose response (AID 624326); type: functional;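 also: rate of fluorescence rise from hydrolysis of a fluorogenic O-methyl fluorescein ester substrate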
T2 sequence (P49327 whole entry): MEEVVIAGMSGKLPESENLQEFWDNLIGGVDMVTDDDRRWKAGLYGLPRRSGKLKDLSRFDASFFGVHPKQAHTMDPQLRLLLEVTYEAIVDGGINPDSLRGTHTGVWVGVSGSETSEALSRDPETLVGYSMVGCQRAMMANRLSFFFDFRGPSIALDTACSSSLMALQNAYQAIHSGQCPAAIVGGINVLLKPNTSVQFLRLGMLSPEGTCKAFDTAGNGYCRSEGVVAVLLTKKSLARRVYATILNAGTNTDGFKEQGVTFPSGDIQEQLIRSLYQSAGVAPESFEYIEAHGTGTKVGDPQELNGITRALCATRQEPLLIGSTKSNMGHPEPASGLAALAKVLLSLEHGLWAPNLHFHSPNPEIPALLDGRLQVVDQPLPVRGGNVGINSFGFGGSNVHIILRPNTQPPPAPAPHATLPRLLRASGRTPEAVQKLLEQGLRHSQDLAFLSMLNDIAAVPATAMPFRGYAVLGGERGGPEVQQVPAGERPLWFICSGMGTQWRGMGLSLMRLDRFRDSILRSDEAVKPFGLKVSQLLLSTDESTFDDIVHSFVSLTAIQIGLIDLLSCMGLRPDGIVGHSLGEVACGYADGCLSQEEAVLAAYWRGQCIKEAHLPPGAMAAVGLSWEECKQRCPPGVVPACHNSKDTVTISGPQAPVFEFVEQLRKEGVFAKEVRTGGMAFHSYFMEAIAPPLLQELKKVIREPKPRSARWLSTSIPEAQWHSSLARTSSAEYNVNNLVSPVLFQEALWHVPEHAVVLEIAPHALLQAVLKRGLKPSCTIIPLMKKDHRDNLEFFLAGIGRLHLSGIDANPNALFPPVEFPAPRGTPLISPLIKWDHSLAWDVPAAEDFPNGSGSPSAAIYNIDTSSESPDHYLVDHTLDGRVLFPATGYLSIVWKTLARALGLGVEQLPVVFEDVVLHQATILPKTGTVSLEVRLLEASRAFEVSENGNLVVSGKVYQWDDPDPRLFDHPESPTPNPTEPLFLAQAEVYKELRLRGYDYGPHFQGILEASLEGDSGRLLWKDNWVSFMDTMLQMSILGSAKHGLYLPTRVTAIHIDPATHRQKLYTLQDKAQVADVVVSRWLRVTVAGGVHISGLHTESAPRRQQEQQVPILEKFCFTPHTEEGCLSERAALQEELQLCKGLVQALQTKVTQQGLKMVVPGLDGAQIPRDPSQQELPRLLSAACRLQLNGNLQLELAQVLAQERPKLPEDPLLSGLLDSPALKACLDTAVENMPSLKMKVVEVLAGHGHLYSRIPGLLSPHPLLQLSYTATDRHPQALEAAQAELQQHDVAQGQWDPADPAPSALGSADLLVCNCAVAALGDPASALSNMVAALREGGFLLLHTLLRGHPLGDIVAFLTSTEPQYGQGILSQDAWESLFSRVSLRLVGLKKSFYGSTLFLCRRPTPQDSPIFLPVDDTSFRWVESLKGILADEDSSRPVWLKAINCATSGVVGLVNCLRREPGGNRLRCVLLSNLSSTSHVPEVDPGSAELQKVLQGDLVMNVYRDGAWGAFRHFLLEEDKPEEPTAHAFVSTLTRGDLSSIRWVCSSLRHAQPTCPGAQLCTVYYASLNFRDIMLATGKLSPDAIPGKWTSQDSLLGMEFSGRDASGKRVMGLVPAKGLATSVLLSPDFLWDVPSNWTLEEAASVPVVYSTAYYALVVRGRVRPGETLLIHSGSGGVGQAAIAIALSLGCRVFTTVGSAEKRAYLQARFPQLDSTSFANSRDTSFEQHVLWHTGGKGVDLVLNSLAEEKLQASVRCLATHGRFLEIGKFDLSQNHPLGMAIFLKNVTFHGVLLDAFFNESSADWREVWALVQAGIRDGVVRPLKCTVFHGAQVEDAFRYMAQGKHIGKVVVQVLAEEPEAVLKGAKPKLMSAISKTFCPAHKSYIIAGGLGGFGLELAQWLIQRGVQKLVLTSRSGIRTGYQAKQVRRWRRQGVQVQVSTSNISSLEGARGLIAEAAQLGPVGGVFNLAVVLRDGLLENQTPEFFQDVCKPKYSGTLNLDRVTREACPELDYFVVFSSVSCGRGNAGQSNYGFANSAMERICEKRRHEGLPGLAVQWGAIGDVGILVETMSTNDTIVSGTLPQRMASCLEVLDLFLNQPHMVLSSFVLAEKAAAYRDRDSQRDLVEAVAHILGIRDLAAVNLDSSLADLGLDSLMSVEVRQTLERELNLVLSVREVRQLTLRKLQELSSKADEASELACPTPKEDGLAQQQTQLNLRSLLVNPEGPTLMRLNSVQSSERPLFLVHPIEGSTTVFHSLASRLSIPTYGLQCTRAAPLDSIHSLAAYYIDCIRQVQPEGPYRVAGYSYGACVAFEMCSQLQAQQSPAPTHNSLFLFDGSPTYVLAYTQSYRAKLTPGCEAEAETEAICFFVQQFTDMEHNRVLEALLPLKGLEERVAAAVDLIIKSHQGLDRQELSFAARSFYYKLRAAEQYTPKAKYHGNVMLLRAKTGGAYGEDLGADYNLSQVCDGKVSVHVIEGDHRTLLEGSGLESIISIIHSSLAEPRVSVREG

Fatty acid synthase [2] = molecular target: T2, Fatty acid synthase; experiment: inhibition of human FAS-TE enzyme activity – biochemical, endpoint fluorescence intensity, uHTS hits, dose response (AID 624327); type: functional;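 also: fluorescence from hydrolysis of an O-methyl fluorescein acyl ester substrate by the enzyme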
[3] = molecular target: Eukaryotic translation initiation factor 4E (Mus musculus, UniProt P63073); experiment: blockers of eIF4G binding by eIF4E – biochemical, TR-FRET, dose response (AID 855); type: functional;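 also: potency for disrupting eIF4E binding to eIF4GI seen as loss of FRET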
Chain of Eukaryotic translation initiation factor 4E (P63073 whole entry): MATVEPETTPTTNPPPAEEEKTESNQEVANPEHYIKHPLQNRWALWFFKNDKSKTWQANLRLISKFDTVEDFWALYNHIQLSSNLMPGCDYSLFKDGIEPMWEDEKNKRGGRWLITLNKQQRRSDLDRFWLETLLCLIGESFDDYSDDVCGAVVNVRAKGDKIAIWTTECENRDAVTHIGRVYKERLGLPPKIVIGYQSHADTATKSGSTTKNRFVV

Leucine aminopeptidase = molecular target: T3, Leucine aminopeptidase (Plasmodium falciparum 3D7, UniProt Q8IL11); experiment: P. falciparum M17LAP inhibitors, primary screen, biochemical, fluorogenic H-Leu-NHMec substrate, 1536-well (AID 1619); type: functional
T3 sequence (Q8IL11 whole entry): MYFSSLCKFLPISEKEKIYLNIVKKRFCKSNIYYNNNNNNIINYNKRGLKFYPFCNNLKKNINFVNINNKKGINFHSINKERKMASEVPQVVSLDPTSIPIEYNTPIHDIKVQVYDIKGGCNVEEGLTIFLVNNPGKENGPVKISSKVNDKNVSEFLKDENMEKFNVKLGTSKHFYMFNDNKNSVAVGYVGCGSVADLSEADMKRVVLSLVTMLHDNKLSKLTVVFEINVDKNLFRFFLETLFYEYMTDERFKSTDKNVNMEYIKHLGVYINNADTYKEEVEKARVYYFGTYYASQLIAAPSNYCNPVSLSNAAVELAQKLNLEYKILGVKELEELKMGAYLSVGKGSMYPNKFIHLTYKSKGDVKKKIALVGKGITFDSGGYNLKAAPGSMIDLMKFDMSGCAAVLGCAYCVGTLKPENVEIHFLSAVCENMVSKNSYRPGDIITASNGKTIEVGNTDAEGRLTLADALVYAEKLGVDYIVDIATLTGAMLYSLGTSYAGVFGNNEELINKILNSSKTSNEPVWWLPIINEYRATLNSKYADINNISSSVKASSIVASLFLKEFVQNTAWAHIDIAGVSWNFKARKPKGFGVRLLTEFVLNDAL

[4] = molecular target: Induced myeloid leukemia cell differentiation protein Mcl-1 (Homo sapiens, UniProt Q07820); type: functional
Chain of Induced myeloid leukemia cell differentiation protein Mcl-1 (Q07820 whole entry): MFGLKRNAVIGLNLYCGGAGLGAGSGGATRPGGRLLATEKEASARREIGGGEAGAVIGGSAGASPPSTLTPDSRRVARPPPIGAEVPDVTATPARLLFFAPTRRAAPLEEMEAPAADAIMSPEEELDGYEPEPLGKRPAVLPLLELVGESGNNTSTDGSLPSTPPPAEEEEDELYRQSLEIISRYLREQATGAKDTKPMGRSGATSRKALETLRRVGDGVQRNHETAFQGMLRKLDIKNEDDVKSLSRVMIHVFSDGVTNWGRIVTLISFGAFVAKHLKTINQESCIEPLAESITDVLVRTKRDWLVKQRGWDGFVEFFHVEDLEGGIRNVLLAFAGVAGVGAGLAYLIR

[5] = molecular target: T4, Rac GTPase-activating protein 1 (Homo sapiens, UniProt Q9H0H5); experiment: blockers of MgcRacGAP-driven Rac1 GTP hydrolysis – biochemical, ADP Hunter fluorescence, primary and confirmatory, confirmation (AID 624330); type: functional
T4 sequence (Q9H0H5 whole entry): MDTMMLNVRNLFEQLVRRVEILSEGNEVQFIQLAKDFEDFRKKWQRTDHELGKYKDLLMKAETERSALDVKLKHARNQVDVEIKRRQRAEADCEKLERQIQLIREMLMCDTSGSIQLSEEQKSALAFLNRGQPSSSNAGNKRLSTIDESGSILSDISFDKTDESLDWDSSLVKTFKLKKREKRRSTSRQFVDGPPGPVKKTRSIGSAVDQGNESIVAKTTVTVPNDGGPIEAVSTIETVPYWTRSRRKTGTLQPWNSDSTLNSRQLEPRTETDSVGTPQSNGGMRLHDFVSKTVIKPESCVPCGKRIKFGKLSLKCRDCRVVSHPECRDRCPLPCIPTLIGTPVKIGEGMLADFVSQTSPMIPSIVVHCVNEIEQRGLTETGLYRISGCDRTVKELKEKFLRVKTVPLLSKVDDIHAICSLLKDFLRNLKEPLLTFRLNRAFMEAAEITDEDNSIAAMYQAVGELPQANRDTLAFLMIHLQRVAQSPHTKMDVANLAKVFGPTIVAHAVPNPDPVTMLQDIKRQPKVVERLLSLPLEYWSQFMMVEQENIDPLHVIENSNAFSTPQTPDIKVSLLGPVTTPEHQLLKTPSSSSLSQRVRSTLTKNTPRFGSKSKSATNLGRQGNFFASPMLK

Chain of Large T antigen (P03070 whole entry): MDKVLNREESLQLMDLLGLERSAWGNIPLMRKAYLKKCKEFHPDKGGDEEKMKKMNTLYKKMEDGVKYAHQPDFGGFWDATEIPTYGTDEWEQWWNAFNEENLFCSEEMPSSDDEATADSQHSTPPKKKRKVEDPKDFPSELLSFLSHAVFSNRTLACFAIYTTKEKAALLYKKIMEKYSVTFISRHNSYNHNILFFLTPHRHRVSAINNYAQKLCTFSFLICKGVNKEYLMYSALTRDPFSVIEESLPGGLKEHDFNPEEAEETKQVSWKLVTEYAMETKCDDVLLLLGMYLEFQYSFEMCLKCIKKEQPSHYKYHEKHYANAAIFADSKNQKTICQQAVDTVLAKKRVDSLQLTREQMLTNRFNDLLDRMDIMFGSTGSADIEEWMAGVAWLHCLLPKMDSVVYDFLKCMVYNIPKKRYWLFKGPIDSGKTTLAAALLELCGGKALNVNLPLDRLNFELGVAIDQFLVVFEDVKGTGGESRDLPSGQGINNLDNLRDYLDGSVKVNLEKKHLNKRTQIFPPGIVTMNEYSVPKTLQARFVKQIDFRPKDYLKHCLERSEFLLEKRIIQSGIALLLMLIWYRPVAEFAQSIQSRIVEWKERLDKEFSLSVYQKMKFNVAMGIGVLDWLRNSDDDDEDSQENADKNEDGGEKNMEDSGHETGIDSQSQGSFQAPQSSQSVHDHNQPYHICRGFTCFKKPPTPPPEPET

Row | IC50 (Large T antigen) | IC50 (Coagulation factor XII) | IC50 (Fatty acid synthase [1]) | IC50 (Fatty acid synthase [2]) | Structure (SMILES) | further results
1 | 6.97 µM (active) |  |  |  | O=C(NC(=S)Nc1ccc(O)cc1)c1ccccc1Cl | 
2 |  | 4.24 µM (active) |  |  | COC(=O)c1c(NC(=O)c2c(-c3ccccc3Cl)noc2C)sc2c1CCC2 | 
3 |  | > 50 µM (inactive) |  |  | CCOC(=O)c1c(NC(=O)c2ccc(Br)o2)sc2c1CCCC2 | 
4 |  |  | 8.51 µM (active) | 9.41 µM (active) | O=C(NCc1ccco1)/C(=C\c1cccc([N+](=O)[O-])c1)NC(=O)c1ccco1 | 
5 |  | > 50 µM (inactive) |  |  | O=C(NCCc1ccccc1)c1cc(=O)c2ccccc2o1 | 
6 |  | > 50 µM (inactive) |  |  | FC(F)C(F)(F)C(F)(F)C(F)(F)c1cc(-c2ccccc2)n[nH]1 | 
7 | 48.1 µM (active) |  |  |  | OC1=C2C(=Nc3nc(S)nc(O)c3C2c2ccc(Br)cc2)CCC1 (stereo unspecified) | IC50 [3]: > 64 µM (inactive); IC50 (Leucine aminopeptidase): 16.7 µM (active)
8 |  |  | 5.62 µM (active) | 4.58 µM (active) | O=C(/C=C/c1cccc([N+](=O)[O-])c1)NCCSc1ccccc1 | 
9 |  |  | 9.2 µM (active) | 9.66 µM (active) | O=C(OCc1ccc([N+](=O)[O-])cc1)C1CCN(S(=O)(=O)c2ccccc2)CC1 | 
10 |  |  | 11.3 µM (active) | 10.4 µM (active) | CN(CC(=O)Nc1ccc(Cl)c(C(F)(F)F)c1)C(=O)C1CC(=O)N(c2ccc3c(c2)OCCO3)C1 (stereo unspecified) | 
11 | 3.29 µM (active) |  |  |  | Cn1c(SCC(=O)N/N=C/c2ccc(O)c(O)c2)nc2ccccc21 | 
12 | 50.8 µM (active) |  |  |  | CC(=O)Nc1sc(N/N=C\c2ccco2)nc1-c1cccs1 | IC50 [4]: 5.23 µM (active)
13 |  | > 50 µM (inactive) |  |  | COc1cc(/C=N/n2cnnc2)ccc1OC(=O)c1cccnc1 | IC50 [5]: 32 µM (active)
